Earlier results in patent US11192954B2, “Compounds and methods for the treatment of TROP2 positive diseases” (BIO-THERA SOLUTIONS, LTD., priority 2017, dated 2021).

Tests used:
[1] = system: multiple cancer cell lines; conditions: cited from earlier work
[2] = system: Lewis lung carcinoma and B-16 melanocarcinoma solid murine tumor models; conditions: mouse, in vivo; cited from earlier work

Compound	Activity against multiple cancer cell lines [1]	Activity against murine tumors [2]
COc1cc2cc(c1Cl)N(C)C(=O)C[C@H](OC(=O)C(C)C)[C@]1(C)O[C@@H]1[C@H](C)[C@@H]1C[C@@](O)(NC(=O)O1)[C@H](OC)/C=C/C=C(\C)C2 [Ansamitocin P3]	effective	
COc1cc2cc(c1Cl)N(C)C(=O)C[C@H](OC(=O)[C@H](C)N(C)C(C)=O)[C@]1(C)O[C@H]1[C@H](C)[C@@H]1C[C@@](O)(NC(=O)O1)[C@H](OC)/C=C/C=C(\C)C2 [Maytansine]		significant inhibitory activity
